Columns and labels:
[1] = Value represents the number of times the compound was as sweet as sucrose
[2] = Compound taste was tested with reference of sucrose sweetness; - = Bitter
[3] = Value represents the number of times the compound was as sweet as sucrose.
[4] = compound taste was tested with reference of sucrose sweetness; - = bitter
[5] = Value represents the number of times the compound was as sweet as sucrose; +/- - - = Sweet/ very bitter
[6] = Compound taste was tested with reference of sucrose sweetness; + / - - = Sweet/very bitter
[7] = compound taste was tested with reference of sucrose sweetness; + / - - = sweet / bitter
[8] = Compound taste was tested with reference of sucrose sweetness; +/- = Sweet/bitter
[9] = Compound taste was tested with reference of sucrose sweetness; + / - = Sweet/bitter
[10] = Compound taste was tested with reference of sucrose sweetness; + / - = Sweet/ bitter
[11] = Compound taste was tested with reference of sucrose sweetness; +/ - - = Sweet/ very bitter

With O=C(O)CC(NC(=O)C(F)(F)F)C(=O)Nc1ccc(Cl)cc1 (centres undefined) as the compound, how does the Taste [1] read?
The Taste was 120.

Which Taste [2] does the source give for N#Cc1ccccc1NC(=O)C(CC(=O)O)NC(=O)C(F)(F)F (centres undefined) here?
Its Taste is “Bitter”.

Which Taste [3] does the source give for O=C(O)CC(NC(=O)C(F)(F)F)C(=O)Nc1ccc([N+](=O)[O-])cc1 (centres undefined) here?
Its Taste is 1500.

With N#Cc1ccc(NC(=O)C(CC(=O)O)NC(=O)C(F)(F)F)cc1 (centres undefined) as the compound, how does the Taste [1] read?
Its Taste is 3000.

For O=C(O)CC(NC(=O)C(F)(F)F)C(=O)Nc1ccccc1[N+](=O)[O-] (centres undefined), which Taste [4] is on record?
The Taste was “Bitter”.

Which Taste [5] does the source give for O=C(O)CC(NC(=O)C(F)(F)F)C(=O)Nc1cccc([N+](=O)[O-])c1 (centres undefined) here?
Its Taste is “+/- - -”.

With Cc1cc(NC(=O)C(CC(=O)O)NC(=O)C(F)(F)F)ccc1[N+](=O)[O-] (centres undefined) as the compound, how does the Taste [6] read?
The Taste was “+ / - -”.

For O=C(O)CC(NC(=O)C(F)(F)F)C(=O)Nc1ccccc1 (centres undefined), which Taste [1] is on record?
Its Taste is 12.

Which Taste [7] does the source give for Cc1cc([N+](=O)[O-])ccc1NC(=O)C(CC(=O)O)NC(=O)C(F)(F)F (centres undefined) here?
The Taste was “+ / - -”.

For O=C(O)CC(NC(=O)C(F)(F)F)C(=O)Nc1ccccc1Cl (centres undefined), which Taste [2] is on record?
Its Taste is “Bitter”.

For N#Cc1cccc(NC(=O)C(CC(=O)O)NC(=O)C(F)(F)F)c1 (centres undefined), which Taste [8] is on record?
The Taste was “+/-”.

With O=C(O)CC(NC(=O)C(F)(F)F)C(=O)Nc1cccc(Cl)c1 (centres undefined) as the compound, how does the Taste [9] read?
Its Taste is “+ / -”.

Which Taste [10] does the source give for Cc1cccc(NC(=O)C(CC(=O)O)NC(=O)C(F)(F)F)c1 (centres undefined) here?
Its Taste is “+ / -”.

For O=C(O)CC(NC(=O)C(F)(F)F)C(=O)Nc1ccc([N+](=O)[O-])c([N+](=O)[O-])c1 (centres undefined), which Taste [11] is on record?
The Taste was “+ / - -”.

— ChEMBL document CHEMBL1122541, “Peptide sweeteners. 7. Taste relationships of trifluoroacetyl-L-aspartylanilides” (J Med Chem, 1984)
